Values joined by “and” are separate entries in the source; they are usually repeats but may differ in a detail not shown here. Equal entries are not always repeated.
Assays:
Format in all cases: functional
SR [1] = assay: Cytotoxicity against Homo sapiens (human) SR cells after 48 hr by SRB assay
ACHN = assay: Cytotoxicity against Homo sapiens (human) ACHN cells at 10^-4 to 10^-8 M after 48 hr by SRB assay; details: read-out: pTGI (converted)
HT-29 = assay: Cytotoxicity against Homo sapiens (human) HT-29 cells after 48 hr by SRB assay
HL-60(TB) = assay: Cytotoxicity against Homo sapiens (human) HL-60(TB) cells at 10^-4 to 10^-8 M after 48 hr by SRB assay; details: HL-60, 48 h, read-out: pTGI (converted)
NCI-H322M [2] = assay: Cytotoxicity against Homo sapiens (human) NCI-H322M cells at 10^-4 to 10^-8 M after 48 hr by SRB assay; details: read-out: pTGI (converted)
UACC-257 [3] = assay: Cytotoxicity against Homo sapiens (human) UACC257 cells after 48 hr by SRB assay
OVCAR-3 = assay: Cytotoxicity against Homo sapiens (human) OVCAR3 cells at 10^-4 to 10^-8 M after 48 hr by SRB assay; details: OVCAR-3, 48 h, read-out: pTGI (converted)
A498 [4] = assay: Cytotoxicity against Homo sapiens (human) A498 cells after 48 hr by SRB assay
SK-MEL-5 = assay: Cytotoxicity against Homo sapiens (human) SK-MEL-5 cells at 10^-4 to 10^-8 M after 48 hr by SRB assay; details: SK-MEL-5, 48 h, read-out: pTGI (converted)
SF-539 = assay: Cytotoxicity against Homo sapiens (human) SF539 cells after 48 hr by SRB assay
COLO 205 = assay: Cytotoxicity against Homo sapiens (human) COLO205 cells after 48 hr by SRB assay
NCI-H322M [5] = assay: Cytotoxicity against Homo sapiens (human) NCI-H322M cells after 48 hr by SRB assay
RPMI-8226 = assay: Cytotoxicity against Homo sapiens (human) RPMI8226 cells at 10^-4 to 10^-8 M after 48 hr by SRB assay; details: RPMI-8226, 48 h, read-out: pTGI (converted)
SK-MEL-28 = assay: Cytotoxicity against Homo sapiens (human) SK-MEL-28 cells at 10^-4 to 10^-8 M after 48 hr by SRB assay; details: SK-MEL-28, 48 h, read-out: pTGI (converted)
SR [6] = assay: Cytotoxicity against Homo sapiens (human) SR cells at 10^-4 to 10^-8 M after 48 hr by SRB assay; details: read-out: pTGI (converted)
U-251 = assay: Cytotoxicity against Homo sapiens (human) U251 cells at 10^-4 to 10^-8 M after 48 hr by SRB assay; details: U-251, 48 h, read-out: pTGI (converted)
A498 [7] = assay: Cytotoxicity against Homo sapiens (human) A498 cells at 10^-4 to 10^-8 M after 48 hr by SRB assay; details: A498, 48 h, read-out: pTGI (converted)
KM12 = assay: Cytotoxicity against Homo sapiens (human) KM12 cells at 10^-4 to 10^-8 M after 48 hr by SRB assay; details: KM12, 48 h, read-out: pTGI (converted)
Hs-578T = assay: Cytotoxicity against Homo sapiens (human) Hs578T cells at 10^-4 to 10^-8 M after 48 hr by SRB assay; details: read-out: pTGI (converted)
SW-620 [8] = assay: Cytotoxicity against Homo sapiens (human) SW620 cells after 48 hr by SRB assay
HCT-15 = assay: Cytotoxicity against Homo sapiens (human) HCT15 cells at 10^-4 to 10^-8 M after 48 hr by SRB assay; details: HCT-15, 48 h, read-out: pTGI (converted)
UACC-257 [9] = assay: Cytotoxicity against Homo sapiens (human) UACC257 cells at 10^-4 to 10^-8 M after 48 hr by SRB assay; details: UACC-257, 48 h, read-out: pTGI (converted)
CAKI-1 = assay: Cytotoxicity against Homo sapiens (human) Caki1 cells at 10^-4 to 10^-8 M after 48 hr by SRB assay; details: CAKI-1, 48 h, read-out: pTGI (converted)
OVCAR-4 = assay: Cytotoxicity against Homo sapiens (human) OVCAR4 cells at 10^-4 to 10^-8 M after 48 hr by SRB assay; details: OVCAR-4, 48 h, read-out: pTGI (converted)
SK-OV-3 = assay: Cytotoxicity against Homo sapiens (human) SKOV3 cells after 48 hr by SRB assay
LOX IMVI [10] = assay: Cytotoxicity against Homo sapiens (human) LOXIMVI cells at 10^-4 to 10^-8 M after 48 hr by SRB assay; details: read-out: pTGI (converted)
LOX IMVI [11] = assay: Cytotoxicity against Homo sapiens (human) LOXIMVI cells after 48 hr by SRB assay
OVCAR-5 = assay: Cytotoxicity against Homo sapiens (human) OVCAR5 cells after 48 hr by SRB assay
NCI-H226 = assay: Cytotoxicity against Homo sapiens (human) NCI-H226 cells after 48 hr by SRB assay
M14 = assay: Cytotoxicity against Homo sapiens (human) M14 cells at 10^-4 to 10^-8 M after 48 hr by SRB assay; details: M14, 48 h, read-out: pTGI (converted)
SW-620 [12] = assay: Cytotoxicity against Homo sapiens (human) SW620 cells at 10^-4 to 10^-8 M after 48 hr by SRB assay; details: SW-620, 48 h, read-out: pTGI (converted)
SNB-75 = assay: Cytotoxicity against Homo sapiens (human) SNB75 cells after 48 hr by SRB assay
DU-145 = assay: Cytotoxicity against Homo sapiens (human) DU145 cells at 10^-4 to 10^-8 M after 48 hr by SRB assay; details: DU-145, 48 h, read-out: pTGI (converted)
T47D = assay: Cytotoxicity against Homo sapiens (human) T47D cells at 10^-4 to 10^-8 M after 48 hr by SRB assay; details: read-out: pTGI (converted)
HOP-62 = assay: Cytotoxicity against Homo sapiens (human) HOP62 cells at 10^-4 to 10^-8 M after 48 hr by SRB assay; details: HOP-62, 48 h, read-out: pTGI (converted)
K562 = assay: Cytotoxicity against Homo sapiens (human) K562 cells at 10^-4 to 10^-8 M after 48 hr by SRB assay; details: K562, 48 h, read-out: pTGI (converted)
EKVX = assay: Cytotoxicity against Homo sapiens (human) EKVX cells after 48 hr by SRB assay
UO-31 = assay: Cytotoxicity against Homo sapiens (human) UO31 cells after 48 hr by SRB assay
MOLT-4 = assay: Cytotoxicity against Homo sapiens (human) MOLT4 cells at 10^-4 to 10^-8 M after 48 hr by SRB assay; details: MOLT-4, 48 h, read-out: pTGI (converted)

Row | SMILES | TGI (ACHN) [µM] | TGI (HL-60(TB)) [µM] | TGI (NCI-H322M [2]) [µM] | TGI (OVCAR-3) [µM] | TGI (SK-MEL-5) [µM] | GI50 (COLO 205; Homo sapiens, COLO 205, 48 h) [µM] | TGI (RPMI-8226) [µM] | TGI (SK-MEL-28) [µM] | TGI (SR [6]) [µM] | TGI (U-251) [µM] | TGI (A498 [7]) [µM] | TGI (KM12) [µM] | TGI (Hs-578T) [µM] | TGI (HCT-15) [µM] | TGI (UACC-257 [9]) [µM] | TGI (CAKI-1) [µM] | TGI (OVCAR-4) [µM] | TGI (LOX IMVI [10]) [µM] | TGI (M14) [µM] | TGI (SW-620 [12]) [µM] | other results
1 | COC(=O)[C@]12CCC(C)(C)C[C@H]1C1=CC[C@@H]3[C@@]4(C)CC/C(=N\O)C(C)(C)[C@@H]4CC[C@@]3(C)[C@]1(C)CC2 | 41.7 | > 100 | > 100 | 35.5 | 63.1 | 22.4 | > 100 | 66.1 | 55 | 33.9 | 63.1 | > 100 | 66.1 | 55 | > 100 | 47.9 | > 100 | 39.8 | 57.5 | 40.7 | GI50 (SR [1]; Homo sapiens, SR, 48 h): 26.9 µM; GI50 (HT-29; Homo sapiens, HT-29, 48 h): 22.9 µM; GI50 (UACC-257 [3]; Homo sapiens, UACC-257, 48 h): 33.1 µM; GI50 (A498 [4]; Homo sapiens, A498, 48 h): 28.2 µM; GI50 (SF-539; Homo sapiens, SF-539, 48 h): 20.9 µM; GI50 (NCI-H322M [5]; Homo sapiens, NCI-H322M, 48 h): 72.4 µM; GI50 (SW-620 [8]; Homo sapiens, SW-620, 48 h): 20 µM; GI50 (SK-OV-3; Homo sapiens, SK-OV-3, 48 h): 40.7 µM; GI50 (LOX IMVI [11]; Homo sapiens, LOX IMVI, 48 h): 19.5 µM; GI50 (OVCAR-5; Homo sapiens, OVCAR-5, 48 h): 24.5 µM; GI50 (NCI-H226; Homo sapiens, NCI-H226, 48 h): 27.5 µM; GI50 (SNB-75; Homo sapiens, SNB-75, 48 h): 18.2 µM; TGI (DU-145): 42.7 µM; TGI (T47D): 72.4 µM; TGI (HOP-62): 44.7 µM; TGI (K562): > 100 µM; GI50 (EKVX; Homo sapiens, EKVX, 48 h): 28.2 µM; GI50 (UO-31; Homo sapiens, UO-31, 48 h): 22.4 µM; TGI (MOLT-4): > 100 µM
2 | CC1(C)CC[C@@]23CC[C@]4(C)[C@@](OC2=O)([C@@H]3C1)[C@@H](Br)C[C@@H]1[C@@]2(C)CC/C(=N\O)C(C)(C)[C@@H]2CC[C@]14C | > 100 | > 100 | > 100 | 49 | > 100 | 91.2 | > 100 | > 100 | 7.94 | > 100 | > 100 | > 100 | 24.5 | > 100 | > 100 | > 100 | > 100 | > 100 | > 100 | > 100 | GI50 (SR [1]; Homo sapiens, SR, 48 h): 2.14 µM; GI50 (HT-29; Homo sapiens, HT-29, 48 h): 17.8 µM; GI50 (UACC-257 [3]; Homo sapiens, UACC-257, 48 h): 14.8 µM; GI50 (A498 [4]; Homo sapiens, A498, 48 h): 49 µM; GI50 (SF-539; Homo sapiens, SF-539, 48 h): 20 µM; GI50 (NCI-H322M [5]; Homo sapiens, NCI-H322M, 48 h): 20 µM; GI50 (SW-620 [8]; Homo sapiens, SW-620, 48 h): 6.76 µM; GI50 (SK-OV-3; Homo sapiens, SK-OV-3, 48 h): 30.9 µM; GI50 (LOX IMVI [11]; Homo sapiens, LOX IMVI, 48 h): 10 µM; GI50 (OVCAR-5; Homo sapiens, OVCAR-5, 48 h): > 100 µM; GI50 (NCI-H226; Homo sapiens, NCI-H226, 48 h): 28.2 µM; GI50 (SNB-75; Homo sapiens, SNB-75, 48 h): 20.4 µM; TGI (DU-145): > 100 µM; TGI (T47D): 74.1 µM; TGI (HOP-62): > 100 µM; TGI (K562): > 100 µM; GI50 (EKVX; Homo sapiens, EKVX, 48 h): 91.2 µM; GI50 (UO-31; Homo sapiens, UO-31, 48 h): 40.7 µM; TGI (MOLT-4): > 100 µM
3 | COC(=O)[C@]12CCC(C)(C)C[C@H]1C1=CC[C@@H]3[C@@]4(C)CC/C(=N\OC(=O)/C=C5/SC(=O)NC5=O)C(C)(C)[C@@H]4CC[C@@]3(C)[C@]1(C)CC2 | 3.39 | 5.37 | 32.4 | 3.47 | 17.8 | 2.63 | 6.03 | 3.8 | 3.89 | 3.39 | 5.75 | 12.6 | 6.76 | 11 | 24.5 | 16.2 | 6.92 | 3.09 | 5.13 | 3.89 | GI50 (SR [1]): 8.91 µM and 1.7 µM; GI50 (HT-29): 15.8 µM and 2.24 µM; GI50 (UACC-257 [3]): 51.3 µM and 11.5 µM; GI50 (A498 [4]): 17.8 µM and 2.57 µM; GI50 (SF-539): 7.59 µM and 1.78 µM; GI50 (COLO 205): 3.47 µM; GI50 (NCI-H322M [5]): 58.9 µM and 18.2 µM; GI50 (SW-620 [8]): 7.59 µM and 2 µM; GI50 (SK-OV-3): 61.7 µM and 20 µM; GI50 (LOX IMVI [11]): 6.61 µM and 1.48 µM; GI50 (OVCAR-5): 60.3 µM and 18.6 µM; GI50 (NCI-H226): ≥ 100 µM and 12.3 µM; GI50 (SNB-75): 49 µM and 10.7 µM; TGI (DU-145): 17 µM; TGI (T47D): 18.6 µM; TGI (HOP-62): 36.3 µM; TGI (K562): 8.13 µM; GI50 (EKVX): 56.2 µM and 6.76 µM; GI50 (UO-31): 5.75 µM and 1.48 µM; TGI (MOLT-4): 7.41 µM

Source: ChEMBL document CHEMBL3045033, “Synthesis of new potential anticancer agents based on 4-thiazolidinone and oleanane scaffolds” (Med Chem Res, 2012)
